Experimental findings from article PMC4595607, “mRNA export through an additional cap-binding complex consisting of NCBP1 and NCBP3” (Nature Communications, 2015) are described below.

Data set [1] has as its target T1, NCBP3 (aa 1-282); C17orf85 (Homo sapiens, UniProt Q53F19, W155A/D157A/D158A).
T1 construct: N-terminal fragment 1-282 with core RRM; expressed in E. coli BL21-AI, purified; untagged for MST and CD (MBP/His construct cloned)
T1 sequence (Q53F19 1-282 W155A/D157A/D158A): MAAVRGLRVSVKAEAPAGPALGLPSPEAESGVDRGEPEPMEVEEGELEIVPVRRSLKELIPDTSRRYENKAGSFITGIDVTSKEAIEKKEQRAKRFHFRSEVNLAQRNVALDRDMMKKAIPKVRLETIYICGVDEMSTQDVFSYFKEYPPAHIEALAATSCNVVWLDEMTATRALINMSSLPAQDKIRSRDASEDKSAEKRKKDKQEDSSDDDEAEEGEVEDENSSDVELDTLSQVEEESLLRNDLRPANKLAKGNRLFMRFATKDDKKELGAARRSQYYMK
Kind of data set: affinity purification on m7GTP-agarose, Coomassie SDS-PAGE. The class given is binding. The note with it: compound immobilised as γ-aminohexyl m7GTP-agarose; WLDD motif mutant (ALAA).

For data set [2], the target named is T2, NCBP3 (aa 1-282); C17orf85 (Homo sapiens, UniProt Q53F19).
T2 construct: N-terminal fragment 1-282 with core RRM; expressed in E. coli BL21-AI, purified; untagged for MST and CD (MBP/His construct cloned)
T2 sequence (Q53F19 1-282): T1 sequence (Q53F19 1-282 W155A/D157A/D158A) with A155W, A157D, A158D
Described as above. Type of data set: binding. The note with it: compound immobilised as γ-aminohexyl m7GTP-agarose.

Data set [3] has as its target T3, recombinant NCBP3 from E. coli lysates (Homo sapiens, UniProt Q53F19).
T3 construct: full-length, N-terminal His tag (pETG10A-NCBP3; MBP/His version also made), E. coli BL21-AI lysate
T3 sequence (Q53F19 1-620): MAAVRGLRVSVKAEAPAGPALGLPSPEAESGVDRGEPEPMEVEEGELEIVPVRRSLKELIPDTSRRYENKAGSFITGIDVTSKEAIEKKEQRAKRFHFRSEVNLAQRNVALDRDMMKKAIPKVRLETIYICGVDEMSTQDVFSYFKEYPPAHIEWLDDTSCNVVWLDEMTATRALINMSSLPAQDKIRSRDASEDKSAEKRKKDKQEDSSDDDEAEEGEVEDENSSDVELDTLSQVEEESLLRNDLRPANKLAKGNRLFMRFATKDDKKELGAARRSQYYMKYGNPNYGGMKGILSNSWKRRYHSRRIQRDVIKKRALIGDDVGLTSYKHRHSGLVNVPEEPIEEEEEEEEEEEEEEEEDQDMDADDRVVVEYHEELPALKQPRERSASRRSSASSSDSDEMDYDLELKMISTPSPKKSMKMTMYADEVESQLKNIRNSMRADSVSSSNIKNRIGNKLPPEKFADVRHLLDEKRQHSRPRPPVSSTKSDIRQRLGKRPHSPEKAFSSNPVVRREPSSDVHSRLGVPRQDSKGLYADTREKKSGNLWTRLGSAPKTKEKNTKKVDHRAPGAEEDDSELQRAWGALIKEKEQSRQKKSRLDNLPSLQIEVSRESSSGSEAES
In words: affinity purification on m7GTP-agarose from E. coli lysate, western blot. The class given is biochemical. To be noted: compound immobilised as γ-aminohexyl m7GTP-agarose.

For data set [4], the system named is NCBP3 1-282 (RRM fragment) (Homo sapiens). Kind of data set: MST. The note with it: 5' m7G cap (CAP0); 3' amino linker; MST: equal volumes of MST-1 (50 mM Tris-HCl pH 7.4, 150 mM NaCl, 10 mM MgCl2, 0.05% Tween-20; RNA 50 nM) and MST-2 (20 mM Tris-HCl pH 7.4, 300 mM NaCl, 5% …).

Residue numbers refer to the chain shown, from its start.

In the case of `C[n+]1cn([C@@H]2O[C@H](COP(=O)(O)OP(=O)(O)OP(=O)(O)O)[C@@H](O)[C@H]2O)c2nc(N)[nH]c(=O)c21` [m^7GTP], the loss of binding entry in data set [1] is on record as “mutation of the NCBP3 WLDD motif to ALAA resulted in loss of binding”. Besides, the “affinity purification on m7GTP-agarose, Coomassie SDS-PAGE” value in data set [2] is on record as “recombinant NCBP3 selectively bound m^7GTP but not GTP”. Besides, the “affinity purification on m7GTP-agarose from E. coli lysate, western blot” value in data set [3] was “m^7GTP versus GTP-affinity purification and western blotting of recombinant NCBP3 from E. coli lysates”.

Regarding CAP-RNA oligo (CAP0), DyLight, the equilibrium dissociation constant (Kd) in data set [4] was determined as 15.8 µM.
